The numbers were not newly measured in patent publication US9060929B2, “Alprostadil for treatment of premature ejaculation” (Nexmed Holdings, Inc., priority 2003, dated 2015), which cites them from elsewhere.

Each structure is given as a SMILES string. Read-outs that look alike come from different tables or passages of the source.

Series [1] concerns men with premature ejaculation and/or erectile dysfunction.
Series [2] relates to patients with PE. As to conditions: 6 months.

On to `CNCCC(Oc1ccc(C(F)(F)F)cc1)c1ccccc1` (stereo not shown) [fluoxetine], for which the latency to ejaculation result in series [1] (PE and PE+ED group taken together, p=0.007) is listed as “increased significantly”; in series [1] (PE+ED group, p=0.03), “increased significantly”.

Regarding `CN[C@H]1CC[C@@H](c2ccc(Cl)c(Cl)c2)c2ccccc21` [sertraline], the “ejaculation latency after treatment” value was 247.2 s in series [2] (PE group, 50 mg sertraline four hours before sex) and 111.6 s in series [2] (PE+ED group (sildenafil-treated), 50 mg sertraline).
